From PubChem BioAssay AID1963439 (Molecular Pharmacology Branch, DTP, NCI, 2024)

System: NCI-H196 complex spheroids with HUVEC/MSC, growth % T/C
Test: Anticancer human tumor NCI-H196 cell line growth inhibition [Asc];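 further: spheroids exposed to compound for 7 days before measurement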;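 on viability, T/C: 100% = DMSO vehicle control wells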
Conditions: for IC50: curve of first compound; for viability, T/C: stronger effect = lower value
Procedure, shortened: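 Complex solid-tumor spheroids incorporating human endothelial and mesenchymal stem cells received single agents or combinations over half-log dilution ranges anchored to clinical Cmax.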

SMILES: C=CC(=O)N1CCN(c2nc(=O)n(-c3c(C)ccnc3C(C)C)c3nc(-c4c(O)cccc4F)c(F)cc23)C(C)C1 (stereo not given) + CNC(C)C(=O)NC1CN(S(=O)(=O)c2cccc(S(=O)(=O)N3CCC4CCC(C(=O)NC(c5ccccc5)c5ccccc5)N4C(=O)C(NC(=O)C(C)NC)C3)c2)CCC2CCC(C(=O)NC(c3ccccc3)c3ccccc3)N2C1=O
- IC50 (second compound 0.01 µM): < 0.0316 µM
- IC50 (second compound 0.0316 µM): < 0.0316 µM
- IC50 (second compound 0.1 µM): < 0.0316 µM
- IC50 (second compound 0.316 µM): < 0.0316 µM
- IC50 (second compound 1 µM): < 0.0316 µM
- viability, T/C (second compound 0.01 µM, first compound 0.0316 µM): 8.2%
- viability, T/C (second compound 0.01 µM, first compound 0.1 µM): 7.68%
- viability, T/C (second compound 0.01 µM, first compound 0.316 µM): 5.38%
- viability, T/C (second compound 0.01 µM, first compound 1 µM): 6.44%
- viability, T/C (second compound 0.01 µM, first compound 3.16 µM): 8.71%
- viability, T/C (second compound 0.01 µM, first compound 10 µM): 9.87%
- viability, T/C (second compound 0.0316 µM, first compound 0.0316 µM): 3.84%
- viability, T/C (second compound 0.0316 µM, first compound 0.1 µM): 5.12%
- viability, T/C (second compound 0.0316 µM, first compound 0.316 µM): 5.38%
- viability, T/C (second compound 0.0316 µM, first compound 1 µM): 8.69%
- viability, T/C (second compound 0.0316 µM, first compound 3.16 µM): 6.93%
- viability, T/C (second compound 0.0316 µM, first compound 10 µM): 7.56%
- viability, T/C (second compound 0.1 µM, first compound 0.0316 µM): 3.27%
- viability, T/C (second compound 0.1 µM, first compound 0.1 µM): 3.83%
- viability, T/C (second compound 0.1 µM, first compound 0.316 µM): 3.69%
- viability, T/C (second compound 0.1 µM, first compound 1 µM): 4.2%
- viability, T/C (second compound 0.1 µM, first compound 3.16 µM): 7.47%
- viability, T/C (second compound 0.1 µM, first compound 10 µM): 9.85%
- viability, T/C (second compound 0.316 µM, first compound 0.0316 µM): 3.58%
- viability, T/C (second compound 0.316 µM, first compound 0.1 µM): 3.64%
- viability, T/C (second compound 0.316 µM, first compound 0.316 µM): 6.15%
- viability, T/C (second compound 0.316 µM, first compound 1 µM): 3.67%
- viability, T/C (second compound 0.316 µM, first compound 3.16 µM): 4.47%
- viability, T/C (second compound 0.316 µM, first compound 10 µM): 6.52%
- viability, T/C (second compound 1 µM, first compound 0.0316 µM): 3.22%
- viability, T/C (second compound 1 µM, first compound 0.1 µM): 3.89%
- viability, T/C (second compound 1 µM, first compound 0.316 µM): 3.25%
- viability, T/C (second compound 1 µM, first compound 1 µM): 3.51%
- viability, T/C (second compound 1 µM, first compound 3.16 µM): 5.33%
- viability, T/C (second compound 1 µM, first compound 10 µM): 9.94%

SMILES: C=CC(=O)N1CCN(c2nc(=O)n(-c3c(C)ccnc3C(C)C)c3nc(-c4c(O)cccc4F)c(F)cc23)C(C)C1 (stereo not given) + CCN1C(C(=O)NC23CCC(C(=O)O)(CC2)CC3)C(c2cccc(Cl)c2F)C2(C(=O)Nc3cc(Cl)ccc32)C12CCCCC2
- IC50 (second compound 0.03 µM): > 10 µM
- IC50 (second compound 0.0949 µM): > 10 µM
- IC50 (second compound 0.3 µM): > 10 µM
- IC50 (second compound 0.949 µM): > 10 µM
- IC50 (second compound 3 µM): > 10 µM
- viability, T/C (second compound 0.03 µM, first compound 0.0316 µM): 104%
- viability, T/C (second compound 0.03 µM, first compound 0.1 µM): 105%
- viability, T/C (second compound 0.03 µM, first compound 0.316 µM): 104%
- viability, T/C (second compound 0.03 µM, first compound 1 µM): 107%
- viability, T/C (second compound 0.03 µM, first compound 3.16 µM): 121%
- viability, T/C (second compound 0.03 µM, first compound 10 µM): 107%
- viability, T/C (second compound 0.0949 µM, first compound 0.0316 µM): 111%
- viability, T/C (second compound 0.0949 µM, first compound 0.1 µM): 111%
- viability, T/C (second compound 0.0949 µM, first compound 0.316 µM): 121%
- viability, T/C (second compound 0.0949 µM, first compound 1 µM): 112%
- viability, T/C (second compound 0.0949 µM, first compound 3.16 µM): 106%
- viability, T/C (second compound 0.0949 µM, first compound 10 µM): 103%
- viability, T/C (second compound 0.3 µM, first compound 0.0316 µM): 106%
- viability, T/C (second compound 0.3 µM, first compound 0.1 µM): 109%
- viability, T/C (second compound 0.3 µM, first compound 0.316 µM): 108%
- viability, T/C (second compound 0.3 µM, first compound 1 µM): 107%
- viability, T/C (second compound 0.3 µM, first compound 3.16 µM): 117%
- viability, T/C (second compound 0.3 µM, first compound 10 µM): 119%
- viability, T/C (second compound 0.949 µM, first compound 0.0316 µM): 123%
- viability, T/C (second compound 0.949 µM, first compound 0.1 µM): 110%
- viability, T/C (second compound 0.949 µM, first compound 0.316 µM): 115%
- viability, T/C (second compound 0.949 µM, first compound 1 µM): 110%
- viability, T/C (second compound 0.949 µM, first compound 3.16 µM): 140%
- viability, T/C (second compound 0.949 µM, first compound 10 µM): 110%
- viability, T/C (second compound 3 µM, first compound 0.0316 µM): 116%
- viability, T/C (second compound 3 µM, first compound 0.1 µM): 120%
- viability, T/C (second compound 3 µM, first compound 0.316 µM): 115%
- viability, T/C (second compound 3 µM, first compound 1 µM): 124%
- viability, T/C (second compound 3 µM, first compound 3.16 µM): 135%
- viability, T/C (second compound 3 µM, first compound 10 µM): 132%
